Data published in publication PMC8795149, “Characterization of a novel non-steroidal glucocorticoid receptor agonist optimized for topical treatment” (Scientific Reports, 2022).

Tests used:
[1] = test system: TPA-induced skin inflammation; assay: TPA study in mice, CP applied on the non-inflamed ear; format: in vivo, mouse; conditions: CP applied topically on the non-inflamed ear, tested dose range 0.03–3 µg/ear
Procedure: Figure S6. Effect of topically applied CP on TPA induced ear biopsy weight in mice (upper panel). Treatment scheme can be seen in the lower panel. Ear oedema was induced by TPA on the left ear on day 1, 3, 5, 8 and 10 and CP was topically administered daily on either left or right ear on day 8 to 11. The left ear biopsy weight was measured on day 11. Significant effect was seen also when CP was administered on the right ear at the 2 highest doses, indicating contribution to the local effect, by systemic exposure

[2] = Hepatocyte stability (rat); format: in vitro ADME; conditions: predicted hepatic clearance, well stirred model
Procedure: Compounds (1.0 µM) were incubated in duplicates with rat, dog, minipig or human hepatocytes (1.0 million cells/mL) in phosphate buffer, in 96-well plates for 120 min (37 °C). Reactions were stopped by addition of cold acetonitrile, at 0, 10, 30, 60, and 120 min, and dispensed into cold acetonitrile to stop the reactions. Plates were centrifuged for 30 min and samples were analysed using liquid chromatography coupled to a time-of-flight mass spectrometer. Compound depletion over time was used to estimate the elimination rate constant, from which the apparent intrinsic clearance (CLapp), and half-life (t½), were calculated.

[3] = Compound concentration in dermis, human skin explants; format: in vitro ADME; conditions: 24 h, propylene carbonate
Procedure: NativeSkin models (NS002) were purchased from Genoskin, France. Human skin samples from abdominal reduction surgery were obtained by Genoskin from donors upon written informed consent. Full ethical approval for the study protocol was obtained from the French ethical research committee (Comité de Protection des Personnes), and authorization was given by the French Ministry of Research. The study was conducted according to the Declaration of Helsinki. 8 mm punch biopsies were excised and embedded in a fibrin-based matrix in transwells and a silicone ring was firmly attached to the surface covering the outer edge of the skin biopsy to prevent lateral diffusion of topically applied formulations. […]
The concentrations of the compounds in dermis were determined from skin biopsies from the human skin explants. […] After homogenization, the samples were diluted, centrifuged and precipitated with acetonitrile containing internal standard (IS), and the compounds were thereafter quantified by means of liquid chromatography-tandem mass spectrometry (LC-MS/MS) using an AB Sciex 5500 or 6500 QTRAP. Calibration curves were prepared by spiking the analytes in blank homogenate, and a generic IS were used in quantification. The dermis micro molar concentrations were calculated assuming 1 gram of skin tissue equal to 1 mL.

[4] = Predicted clearance and half-life in man by allometric scaling of clearance in dogs; set-up: species or system human
Source text: To evaluate allometric scaling, actual clearance in dog and man were extracted from the literature for 6 ester drugs[27]–[38].

[5] = molecular target: T1, human Mineralocorticoid Receptor (Homo sapiens, UniProt P08235); assay: MR antagonist assay, MR reporter assay; format: cell-based
T1 construct: host or cells: HEK293 (DSMZ ACC 305)
T1 sequence (P08235 726-964 limits assumed): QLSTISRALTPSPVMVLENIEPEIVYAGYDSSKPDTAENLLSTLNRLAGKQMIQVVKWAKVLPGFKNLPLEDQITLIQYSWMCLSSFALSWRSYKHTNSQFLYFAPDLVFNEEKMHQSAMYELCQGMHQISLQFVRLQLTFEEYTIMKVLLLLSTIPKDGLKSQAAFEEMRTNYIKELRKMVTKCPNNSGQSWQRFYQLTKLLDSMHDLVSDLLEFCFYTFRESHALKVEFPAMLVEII
Procedure: Assays were performed at Indigo Biosciences according to standard protocols. In brief, MR-luciferase reporter cells were incubated with medium containing charcoal-stripped fetal bovine serum and incubated with test and reference compounds for 24 h before measuring luminescence. Data were fitted by the means of four parameter logistic regression.
LEO 134310 and LEO 134988 were tested in the human Mineralocorticoid Receptor in cellular GAL4 reporter gene assays. All assays were done in HEK293 cells (DSMZ ACC 305). The plasmids used in Phenex’ GAL4 assay system are derivatives of Stratagene’s M2H plasmids: the reporter plasmid pFR-Luc (contains a synthetic promoter with five tandem repeats of the yeast GAL4 binding sites that control expression of the Photinus pyralis (American firefly) luciferase gene), and pCMV-BD (for fusions of nuclear receptor ligand binding domains to the DNA-binding domain of the yeast protein GAL4). In order to improve experimental accuracy, a second reporter - Renilla reniformis luciferase, driven by a constitutive promoter - was included as internal control. Using the control reporter (pRL-CMV) allows correcting for variations in experimental handling e.g. transfection efficacy, cell viability, pipetting errors, cell lysis efficiency and assay efficiency. The compounds were tested in 9 concentrations in triplicates.

[6] = In vivo pharmacokinetics in rat, i.v.
Procedure: The pharmacokinetic profile of LEO 134310 was determined in rat (male Sprague Dawley) and dog (female Beagle) after intravenous (i.v.) injection at 1 mg/kg. LEO 134310 was administered in isotonic cyclodextrin solution at 0.5 mg/mL (0.1% Citrate buffer pH 4, 20% hydroxy-propyl-β-cyclodextrin in 0.2% NaCl). The i.v. dose was given as a bolus in rats and as a slow injection over 2 min in dogs. The dosing volume was 2 mL/kg. Blood was immediately diluted after sampling in an inhibitory cocktail containing acetylcholinesterase inhibitor Dichlorvos [1 mg/mL in an 8 mg/mL K2EDTA solution in phosphate buffer (PBS)] and samples were stored at − 80 °C until analysis. Samples were analyzed by LC–MS/MS using an API 5500/API 6500 QTRAP mass spectrometer. Pharmacokinetic parameters were derived from a non-compartment model in Phoenix64 (Pharsight, Certara).

Compound | Dose from which significant anti-inflammatory effect due to systemic exposure was seen [1] | In vitro (hepatocytes) CLH [2] | Higher dose needed to achieve similar dermis concentrations compared to BMV [3] | Higher dose needed to achieve similar dermis concentrations compared to CP [3] | Predicted clearance in man ([4]; allometric scaling of clearance in dogs, scaling factor 0.75) | Predicted half-life in man ([4]; corresponding to predicted clearance) | Antagonist activity on MR [5] | In vivo clearance relative to liver blood flow [6] | In vivo clearance ([6]; i.v. 1 mg/kg) | In vivo terminal half-life ([6]; i.v. 1 mg/kg)
CCC(=O)O[C@]1(C(=O)CCl)[C@@H](C)C[C@H]2[C@@H]3CCC4=CC(=O)C=C[C@]4(C)[C@@]3(F)[C@@H](O)C[C@@]21C [CP, Clobetasol Propionate] | ≥ 1 µg/ear | – | – | – | – | – | – | – | – | –
C[C@H](NC(=O)[C@H]1CCCO1)[C@H](Oc1ccc(C(=O)O[C@H]2CCCN(C(=O)[C@H]3COC(=O)C3)C2)cc1)c1ccc(C2CC2)cc1 [LEO 134310] | – | 57 (n = 1) mL/min/kg | 3 fold | 7 fold | 300 mL/min/kg | < 5 min | no antagonist activity on MR | 5 fold | 360 ± 85 (n = 3) mL/min/kg | 190 ± 171 (n = 3) min
